Read-outs that look alike come from different tables or passages of the source. Square brackets hold non-standard residues; d marks the D form. Peptide text beside a SMILES is read from it.
System: Candida albicans SC5314
Assay type: cell-based
Procedure: Killing assays. The fungicidal activity of the peptides toward Candida albicans was examined by microdilution plate assay as described previously (13). Briefly, from a fresh overnight cultured plate, a single colony was inoculated and diluted in 1 ml of 10 mM sodium phosphate buffer at pH 7.4. Once cell counts had been confirmed by using a hemocytometer, the cells diluted within the same buffer at 1.8×10^5 cells/mil. Cell suspensions of 20 μl were mixed with 20 μl of peptide, which were dissolved in 10 mM sodium phosphate buffer at pH 7.4, and then incubated for 2 hours at 37° C. with shaking at speeds of 550 rpm. The reactions were stopped by the addition of 360 μl yeast nitrogen base (YNB) and then 40 μl of cell suspension was spread onto plates and incubated for 24 hours at 37° C. Sabouraud dextrose agar plates were used for C. albicans killing assay. The number of colony-forming units (CFUs) was counted and each assay was repeated in triplicate. Loss of viability was calculated as [1-(colonies from suspension with peptide/colonies from suspension with no peptide)]×100. For the respiratory activity experiments, Candida albicans was grown in the presence of sodium azide or antimycin A (Sigma Aldrich) before the killing assay was performed.

CC(=O)N[C@@H](Cc1ccccc1)C(=O)N[C@@H](CCCCN)C(=O)N[C@@H](CCCNC(=N)N)C(=O)N[C@@H](CCCCN)C(=O)N[C@@H](Cc1ccc(O)cc1)C(N)=O [KM5, F-K-R-K-Y] (Ac-FKRKY-NH2)
Percent killing activity at 25 μM concentration (25 μM peptide, Candida albicans SC5314): 85%
LD50 (dose of peptide required to achieve 50% killing) (Candida albicans SC5314, 2 hours at 37° C., calculated using a linear regression equation): 5 µM

CC(=O)N[C@H](Cc1ccccc1)C(=O)N[C@H](CCCCN)C(=O)N[C@H](CCCNC(=N)N)C(=O)N[C@H](CCCCN)C(=O)N[C@H](Cc1ccc(O)cc1)C(N)=O [KM6, dF-dK-dR-dK-dY] (Ac-[dF][dK][dR][dK][dY]-NH2)
antifungal activity relative to comparator peptides (in words) (Candida albicans SC5314): equivalent antifungal activity

CC(=O)N[C@@H](Cc1ccccc1)C(=O)N[C@@H](CCCCN)C(=O)N1CCC[C@H]1C(=O)N[C@@H](CCCCN)C(=O)N[C@@H](Cc1ccc(O)cc1)C(N)=O [KM7, FKPKY] (Ac-FKPKY-NH2)
Percent killing activity at 25 μM concentration (SC5314, 25): 3%

CC(=O)N[C@@H](Cc1ccccc1)C(=O)N[C@@H](CCCCN)C(=O)N[C@@H](CO)C(=O)N[C@@H](CCCCN)C(=O)N[C@@H](Cc1ccc(O)cc1)C(N)=O [KM8, FKSKY] (Ac-FKSKY-NH2)
Percent killing activity at 25 μM concentration (SC5314, 25): 0%

CC(=O)N[C@@H](Cc1ccccc1)C(=O)N[C@@H](CCCCN)C(=O)N[C@@H](CCCNC(=N)N)C(=O)N[C@@H](CCCCN)C(=O)N[C@@H](Cc1ccccc1)C(N)=O [KM9, FKRKF] (Ac-FKRKF-NH2)
Percent killing activity at 25 μM concentration (SC5314, 25): 70%

CC(=O)N[C@@H](CCCCN)C(=O)N[C@@H](Cc1ccccc1)C(=O)N[C@@H](CCCNC(=N)N)C(=O)N[C@@H](Cc1ccc(O)cc1)C(=O)N[C@@H](CCCCN)C(N)=O [KM10, KFRYK] (Ac-KFRYK-NH2)
Percent killing activity at 25 μM concentration (SC5314, 25): 55%

From patent US9556226B2, “Peptides with antifungal activity and methods of using the peptides” (THE BOARD OF TRUSTEES OF THE UNIVERSITY OF ARKANSAS, priority 2013, dated 2017)
